Laboratory results reported in patent publication US20150374779A1, “PHARMACOLOGIC TREATMENTS OF MENIÉRE'S DISEASE” (priority 2014, published 2015).
Where no end group is shown, it is not given here. [ ]: non-standard residue; d: D form.

Assays:
wild type HSV-1 (KOS) = assay: Western blot assay of accumulation of HSV-1 viral proteins (IE, E, L classes) in SH-SY5Y cells and rat fetal cortex neurons; assay type: cell-based; details: 10 μM; both SH-SY5Y cells and fetal cortex neurons; 8 h post infection
Description: Cell monolayers were pretreated either with DMSO (DM, vehicle control), or the JNK inhibitors D-JNKI-1 (AM, 10 μM) or SP600125 (SP, 40 μM), then infected in the presence of drug for 60 minutes and finally in the presence of drug until the time of harvest, 8 hours post infection. Western blot for tubulin served as a loading control.
The ability of JNK inhibitors to affect accumulation of viral proteins representative of the immediate-early (IE), early (E) or late (L) kinetic classes was evaluated by a Western blot assay.
Unless indicated otherwise, the same materials and methods were applied as for the experiment described under Example 1 and as laid out by Hargett et al., 2005.
Replicate monolayers of rat fetal cortex neurons or ATRA-differentiated SH-SY5Y cells were pre-treated with DMSO, D-JNKI-1 (10 μM) or […] (40 μM) for 30 minutes, and then infected with wild type HSV-1 (KOS) or ICP27 null mutant d27 at a multiplicity of infection (MOI) of 5, or mock-infected under pre-treatment conditions for 60 minutes. The inoculum was removed and incubation continued under the pretreatment conditions until the time of harvest. Whole cell lysates were prepared at 8 h post infection. Aliquots of lysates were separated on 12% gels by standard polyacrylamide gel electrophoresis (SDS-PAGE) procedures. […]

reovirus T3D = details: cited from earlier work
KOS strain of HSV-1 [1] = assay: single cycle herpes simplex virus infection assay (virus yield), ATRA-differentiated SH-SY5Y human neuroblastoma cells; assay type: cell-based; details: for virus yield, % of control: DMSO = 100; for activity at 40 µM: Human alphaherpesvirus 1, Neuroblastoma cell
Description: (§1) A single cycle herpes simplex virus infection assay was performed to determine the effect of JNK inhibitors on virus yield.
(§2) To prepare a 1 mM stock solution, 5.15 mg of D-JNKI-1 acetate was suspended in 1 ml of water, vortexed for 2 minutes, and sterilized by passage through a PES filter; 50 μL aliquots were prepared and stored at −20° C.
(§3) Human neuroblastoma cells (SH-SY5Y) were maintained in DMEM plus 10% fetal calf serum, 1 mM HEPES (Gibco) and 2 μg/ml gentamicin (Gibco). For differentiation, monolayers of cells were rinsed in PBS and then maintained in Neurobasal medium (Gibco) plus 2% B27 supplement and […] all-trans retinoic acid (ATRA). Primary fetal rat cortex cells were maintained in Neurobasal medium plus 2% B27, 2 mM glutamine and […] gentamicin.
(§4) Monolayers of SH-SY5Y human neuroblastoma cells differentiated by treatment with ATRA, or fetal rat cortex neurons were pre-treated with 10-20 μM D-JNKI-1, 40 μM SP600125 (Calbiochem), or DMSO (D2650, Sigma-Aldrich) vehicle control for 30 minutes prior to infection. Monolayers were infected with the KOS strain of HSV-1 at a multiplicity of infection (MOI) of 5 for 60 minutes under conditions of pre-treatment. Following the inoculation period, monolayers were incubated under pre-treatment conditions and harvested at 20 hours postinfection.
(§5) Cells and media were collected, and subjected to three rounds of freezing and thawing. Serial ten-fold dilutions were prepared and aliquots seeded in triplicate onto monolayers of Vero cells. Following a 60-minutes infection period, the inoculum was removed and replaced with medium containing 0.3% methyl cellulose. After 3 days, the overlay was removed and the cell monolayer stained with 0.8% crystal violet in 50% ethanol and plaques counted to determine virus yield. Results were presented as % of yield relative to control conditions (DMSO vehicle treatment).

KOS strain of HSV-1 [2] = assay: single cycle herpes simplex virus infection assay (virus yield), fetal rat cortex neurons; assay type: cell-based; details: for Pfu/culture: MOI 5, harvest 20 h postinfection, DMSO 1.33 × 10^6
Description: as §1, §2, §3, §4, §5

ASNHL-related tinnitus = assay: double-blind, randomized, placebo-controlled phase II study of AM-111 in ASNHL and associated tinnitus; assay type: in vivo, human; details: for Complete ASNHL-Related Tinnitus Remission in the Treated Ear, Frequency (%): mITT; for Number of Subjects with Tinnitus/Number of Subjects with Observation (%): Day 90, placebo 28/50 (56.0)
Description: A double-blind, randomized, placebo-controlled phase II study was conducted to evaluate the efficacy and safety of AM-111 in treating ASNHL and associated tinnitus. Eligible participants were aged 18 to 60 years and suffered from ASNHL (unilateral idiopathic sudden sensorineural hearing loss (ISSNHL), uni- or bilateral acute acoustic trauma (AAT)) with hearing loss of at least 30 dB and onset not more than 48 hours previously. The hearing loss was determined against a reference value: mean hearing threshold at the 3 most affected contiguous test frequencies (pure tone average, PTA) less corresponding mean hearing threshold of the contralateral ear (Plontke et al., 2007). In case of previously asymmetric hearing or bilateral ASNHL, thresholds from a previous audiogram or ISO-7029; 2000 norm values served as reference. The PTA frequencies determined at baseline remained fixed for all evaluations.
Exclusion criteria included history of Meniére's disease, autoimmune or radiation induced hearing […] loss, endolymphatic hydrops or fluctuating hearing loss, suspected perilymph fistula, membrane rupture or retrocochlear lesion, barotrauma, air-bone gap >20 dB in 3 contiguous frequencies, previous ASNHL incident within the past 6 weeks, and acute or chronic otitis media or otitis externa. Women who were breast feeding, pregnant or who planned a pregnancy during the study, or women of childbearing potential who declared being unwilling or unable to practice an effective method of […] contraception were excluded. Written informed consent was obtained from each patient prior to the performance of any study-specific procedures.
At baseline (Day 0), study participants were randomized to receive AM-111 (0.4 or 2.0 mg/mL) or placebo at a 2:1 ratio. The study consisted of a baseline assessment and 4 follow-up visits on Days 3, 7, 30, and 90. Baseline assessments included a general physical examination, vital signs, and a urine pregnancy test for women of childbearing age. At each study visit pure tone hearing thresholds, speech discrimination at 60 and 80 dB, and subjective tinnitus loudness were determined. Those patients reporting tinnitus were asked to rate its loudness “right now” on a numerical scale ranging from 0 (no tinnitus) to 10 (extremely loud).
Approximately 0.25 mL of the study drug was administered on Day 0 by intratympanic (i.t.) injection under local anesthesia through a small myringotomy with the patient's head placed in a position tilted 45° towards the unaffected ear. Patients remained in their reclined or supine position for approximately 30 minutes to allow for diffusion of the active substance into the cochlea. In case of bilateral AAT, only the worst affected ear was treated. Subjects whose PTA recovered <10 dB from baseline to Day 7 were given the option to receive oral prednisolone 50 mg (Ratiopharm, Ulm, Germany) b.i.d. for 5 days.
The sample size was determined based on an expected effect size of 0.6, a two-sided type I error rate of 5% and a statistical power of 80%.
Efficacy analyses were primarily performed on a modified “Intention to treat” (mITT) analysis set (treated patients with PTA measured on Day 3±1 or Day 7+4 days at most) and secondarily on the “Per Protocol” (PP) analysis set. The “Safety Population” analysis set included all patients who received an injection of the study medication. Random imputation was performed for missing PTA values at Days 7 and 30, and missing speech discrimination score (SDS) values at Day 7 based on the preceding value and the mean change observed in the respective treatment group (mITT set).
For continuous efficacy endpoints, analysis of covariance (ANCOVA) models were used including treatment group and initial frequency range as class effects, and baseline values of the respective endpoint as covariate. For the complete recovery rate, a logistic regression model was applied including treatment, initial frequency range, and baseline hearing loss as predictor variables. […]

[3] = test system: models of cochlear insult; details: acute noise trauma, acute labyrinthitis, aminoglycoside ototoxicity, bacterial infection, cochlear ischemia, cochlear implantation trauma; cited from earlier work

DQSRPVQPFLNLTTPRKPRPPRRRQRRKKRG (SEQ ID NO: 2) (not fully specified (some residues); also: D-amino acids (positions not given here)) [D-JNKI-1]
L (gC and Us11) protein accumulation (wild type HSV-1 (KOS)): severe reduction
accumulation of IE (ICP27) and E (ICP8) proteins (wild type HSV-1 (KOS)): moderate reductions
survival of intracerebrally infected mice (reovirus T3D; otherwise lethal challenge with T3D (100×50% lethal dose)): significantly prolonged survival
CNS injury (reovirus T3D; reovirus-infected mice): reduced CNS injury
c-Jun activation (reovirus T3D; reovirus-infected mice): reduced c-Jun activation
neuronal apoptosis (reovirus T3D; reovirus-infected mice): reduced neuronal apoptosis
viral titer or viral antigen distribution (reovirus T3D; reovirus-infected mice): without altering
virus yield (in words) (KOS strain of HSV-1 [1]): substantially reduced
virus yield, % of control (KOS strain of HSV-1 [1]; First experiment, 10 μM): 37%
Pfu/culture (KOS strain of HSV-1 [1]; First experiment, 10 μM, MOI 5, harvest 20 h postinfection, DMSO 3.5 × 10^5): 1.27 × 10^5 Pfu/culture
Pfu/culture (KOS strain of HSV-1 [1]; Second experiment, 10 μM, DMSO 8.5 × 10^5): 2.23 × 10^5 Pfu/culture
virus yield, % of control (KOS strain of HSV-1 [1]; Second experiment, 10 μM): 26%
Pfu/culture (KOS strain of HSV-1 [1]; Second experiment, 20 μM, DMSO 8.5 × 10^5): 2.06 × 10^5 Pfu/culture
virus yield, % of control (KOS strain of HSV-1 [1]; Second experiment, 20 μM): 24%
virus yield, % of control (KOS strain of HSV-1 [2]; 10 μM, fetal rat neurons, DMSO = 100): 12%
Pfu/culture (KOS strain of HSV-1 [2]; 10 μM, fetal rat neurons): 1.67 × 10^5 Pfu/culture
virus yield (in words) (KOS strain of HSV-1 [2]; rat cortex neurons): substantially reduced

DQSRPVQPFLNLTTPRKPRPPRRRQRRKKRG (SEQ ID NO: 2) ([dD][dQ][dS][dR][dP][dV][dQ][dP][dF][dL][dN][dL][dT][dT][dP][dR][dK][dP][dR][dP][dP][dR][dR][dR][dQ][dR][dR][dK][dK][dR]G) [AM-111, 31-amino acid cell-permeable peptide, formulated in a biocompatible hyaluronic acid gel]
Complete ASNHL-Related Tinnitus Remission in the Treated Ear, Frequency (%) (ASNHL-related tinnitus; All Subjects, 0.4 mg/mL, N = 50, Time point: Overall (90 days), placebo 28 (54.9%), p 0.151): 35 (70.0%)
Complete ASNHL-Related Tinnitus Remission in the Treated Ear, Frequency (%) (ASNHL-related tinnitus; All Subjects, 2.0 mg/mL, N = 56, Overall, placebo 28 (54.9%), p 1.000): 31 (55.4%)
Number of Subjects with Tinnitus/Number of Subjects with Observation (%) (ASNHL-related tinnitus; 0.4 mg/mL i.t.): 38.0%
Number of Subjects with Tinnitus/Number of Subjects with Observation (%) (ASNHL-related tinnitus; 2.0 mg/mL i.t.): 51.9%
Complete ASNHL-Related Tinnitus Remission in the Treated Ear, Frequency (%) (ASNHL-related tinnitus; Mild to Moderate Subgroup, 0.4 mg/mL, N = 25, Overall, placebo 22 (78.6%), p 0.732): 21 (84.0%)
Complete ASNHL-Related Tinnitus Remission in the Treated Ear, Frequency (%) (ASNHL-related tinnitus; Mild to Moderate Subgroup, 2.0 mg/mL, N = 27, Overall, placebo 22 (78.6%), p 0.245): 17 (63.0%)
complete tinnitus remission, difference between AM-111 treatment groups and placebo (ASNHL-related tinnitus; subgroup mild to moderate hearing loss, 0.4 and 2.0 mg/mL): no statistically significant differences
otoprotection [3]: otoprotective

Oc1c2ccccc2c2c3c(cccc13)N=N2 [SP600125, reference compound]
Pfu/culture (KOS strain of HSV-1 [1]; First experiment, 40 μM, MOI 5, harvest 20 h postinfection, DMSO 3.5 × 10^5): 2.57 × 10^5 Pfu/culture
activity at 40 µM (KOS strain of HSV-1 [1]; read-out: virus yield, % of control, First experiment, 40 μM, DMSO = 100): 72%
activity at 40 µM (KOS strain of HSV-1 [1]; read-out: virus yield, % of control, Second experiment, 40 μM, DMSO = 100): 20%
Pfu/culture (KOS strain of HSV-1 [1]; Second experiment, 40 μM, DMSO 8.5 × 10^5): 1.76 × 10^5 Pfu/culture
Pfu/culture (KOS strain of HSV-1 [2]; 40 μM, fetal rat neurons): 8.0 × 10^5 Pfu/culture
activity at 40 µM (KOS strain of HSV-1 [2]; Human alphaherpesvirus 1, Neuron, 40 μM, fetal rat neurons, DMSO = 100, read-out: virus yield, % of control): 60%
